Measurements taken from PubChem BioAssay (NCI).
“And” between values parts separate entries of the source, which are not always exact repeats. Identical values can stand only once.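 Exposure lasted 48 hours, with cells grown in 96-well plates and compounds tested at five concentrations. GI50: concentration for 50% inhibition of growth. TGI denotes the concentration required for complete inhibition of growth.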

Each compound was assayed on SF-268 CNS (assay: NCI anticancer screen, dose series, 48 h).
`COc1ccc(/C(Cl)=C(\C=O)c2ccc([N+](=O)[O-])cc2)cc1` was tested, and the TGI was 92.3 µM.
`Clc1ccc(-c2c(C3=NCCCN3)nnn2-c2ccc(Cl)cc2)cc1` gave a TGI greater than 83.2 µM.
`Fc1ccc(C2SCc3nc4ccccc4n32)cc1Cl` (configuration not stated) showed a TGI greater than 100 µM.
For `CC1=N/C(=C\c2cccc([N+](=O)[O-])c2)C(=O)O1`, the TGI was greater than 100 µM.
In the case of `CCCCOC(=O)NC(=O)c1cn(C2CCCCC2)c(=O)[nH]c1=O`, the TGI is reported as greater than 100 µM.
`COc1cc2c(c(OC)c1)C1(CC(CC#N)C2)SCCS1` (configuration not stated) gave a TGI greater than 100 µM.
Compound `CCOC(=O)CCn1[nH]c(=O)c(Cl)c(Cl)c1=O` has a TGI greater than 100 µM.
`Nc1ncn(C2CC(O)C(CO)O2)c(=O)n1` (configuration not stated) was tested, and the TGI was greater than 375 µM.
`C/C=C1/C(=C/c2[nH]c(/C=c3\[nH]/c(=C/C4=NC(=O)C(CC)=C4C)c(C)c3CCC(=O)O)c(CCC(=O)O)c2C)NC(=O)C1C` (configuration not stated) showed a GI50 greater than 150 µg/mL and a TGI greater than 150 µg/mL.
Compound `N#CCc1ccc(C(C#N)/C(CCCC(=O)Nc2cccc([N+](=O)[O-])c2)=N/NC(N)=S)cc1` (configuration not stated) has a TGI greater than 100 µM.
For `O=c1[nH]c(=O)n(C2OC(CO)C(O)C(O)C2O)cc1F` (configuration not stated), the TGI was greater than 100 µM.
`c1cc[c]([Pb]([c]2ccccc2)[c]2ccccc2)cc1` gave a GI50 of 7.34 µM and a TGI of 50.7 µM.
With `CC(C)(C)c1ccc(O)c(CN(Cc2cc(C(C)(C)C)ccc2O)c2ccccc2)c1` the TGI was 38.3 µM.
With `CC(C)(C)c1cc(NC(=O)Cc2ccc(-c3cnc4cc(-c5cnn(CCN6CCOCC6)c5)ccc4n3)cc2)no1` the GI50 was 0.413 µM and 0.468 µM and 0.0781 µM and the TGI was 50 µM and > 100 µM and > 3 µM.
In the case of `Cc1ccc2[nH]c(C(=O)NN3C(=O)C(C)SC34CCCC(C)C4)c(-c3ccccc3)c2c1` (configuration not stated), the GI50 is reported as 64.8 µM and the TGI is reported as greater than 100 µM.

What follows are compounds tested on UO-31 renal (assay: NCI anticancer screen, dose series, 48 h).
Work on `COc1ccc(/C(Cl)=C(\C=O)c2ccc([N+](=O)[O-])cc2)cc1` yielded a TGI of 56.2 µM.
`Clc1ccc(-c2c(C3=NCCCN3)nnn2-c2ccc(Cl)cc2)cc1` gave a TGI of 90.4 µM.
With `Fc1ccc(C2SCc3nc4ccccc4n32)cc1Cl` (configuration not stated) the TGI was 43.5 µM.
`CC1=N/C(=C\c2cccc([N+](=O)[O-])c2)C(=O)O1` was tested, and the TGI was greater than 100 µM.
Compound `CCCCOC(=O)NC(=O)c1cn(C2CCCCC2)c(=O)[nH]c1=O` has a TGI of 46.2 µM.
`COc1cc2c(c(OC)c1)C1(CC(CC#N)C2)SCCS1` (configuration not stated) gave a TGI greater than 100 µM.
`CCOC(=O)CCn1[nH]c(=O)c(Cl)c(Cl)c1=O` was tested, and the TGI was greater than 100 µM.
In the case of `Nc1ncn(C2CC(O)C(CO)O2)c(=O)n1` (configuration not stated), the TGI is reported as greater than 375 µM.
`C/C=C1/C(=C/c2[nH]c(/C=c3\[nH]/c(=C/C4=NC(=O)C(CC)=C4C)c(C)c3CCC(=O)O)c(CCC(=O)O)c2C)NC(=O)C1C` (configuration not stated) was tested, and the GI50 was greater than 150 µg/mL and the TGI was greater than 150 µg/mL.
With `N#CCc1ccc(C(C#N)/C(CCCC(=O)Nc2cccc([N+](=O)[O-])c2)=N/NC(N)=S)cc1` (configuration not stated) the TGI was greater than 100 µM.
Work on `O=c1[nH]c(=O)n(C2OC(CO)C(O)C(O)C2O)cc1F` (configuration not stated) yielded a TGI greater than 100 µM.
With `c1cc[c]([Pb]([c]2ccccc2)[c]2ccccc2)cc1` the GI50 was 26.8 µM and the TGI was 88.6 µM.
Compound `CC(C)(C)c1ccc(O)c(CN(Cc2cc(C(C)(C)C)ccc2O)c2ccccc2)c1` has a TGI of 29.2 µM.
Compound `COC1=CC2(C=CC1=O)c1cc(OC)c(OC)cc1CCN2C(=O)c1ccccc1` (configuration not stated) has a TGI greater than 100 µM.
`CC(C)(C)c1cc(NC(=O)Cc2ccc(-c3cnc4cc(-c5cnn(CCN6CCOCC6)c5)ccc4n3)cc2)no1` was tested, and the GI50 was 0.135 µM and 0.0883 µM.
`Cc1ccc2[nH]c(C(=O)NN3C(=O)C(C)SC34CCCC(C)C4)c(-c3ccccc3)c2c1` (configuration not stated) showed a GI50 greater than 100 µM and a TGI greater than 100 µM.

These compounds were tested on M19-MEL melanoma (assay: NCI anticancer screen, dose series, 48 h).
`Fc1ccc(C2SCc3nc4ccccc4n32)cc1Cl` (configuration not stated) gave a TGI of 37.1 µM.
`CC1=N/C(=C\c2cccc([N+](=O)[O-])c2)C(=O)O1` gave a TGI greater than 100 µM.
Compound `CCCCOC(=O)NC(=O)c1cn(C2CCCCC2)c(=O)[nH]c1=O` has a TGI greater than 100 µM.
`COc1cc2c(c(OC)c1)C1(CC(CC#N)C2)SCCS1` (configuration not stated) gave a TGI greater than 100 µM.
`CCOC(=O)CCn1[nH]c(=O)c(Cl)c(Cl)c1=O` showed a TGI greater than 100 µM.
`Nc1ncn(C2CC(O)C(CO)O2)c(=O)n1` (configuration not stated) showed a TGI greater than 375 µM.
For `C/C=C1/C(=C/c2[nH]c(/C=c3\[nH]/c(=C/C4=NC(=O)C(CC)=C4C)c(C)c3CCC(=O)O)c(CCC(=O)O)c2C)NC(=O)C1C` (configuration not stated), the GI50 was greater than 150 µg/mL and the TGI was greater than 150 µg/mL.
With `CC(C)c1ccc(C(c2ccc(OCC(=O)O)cc2)c2ccc(C(C)C)cc(=O)c2O)c(O)c(=O)c1` the TGI was 69.9 µM.
For `COc1ccc2c3c(coc13)C(CCC(=O)O)CC2` (configuration not stated), the TGI was greater than 100 µM.
`O=c1[nH]c(=O)n(C2OC(CO)C(O)C(O)C2O)cc1F` (configuration not stated) gave a TGI greater than 100 µM.

Each compound was assayed on OVCAR-5 ovarian (assay: NCI anticancer screen, dose series, 48 h).
`COc1ccc(/C(Cl)=C(\C=O)c2ccc([N+](=O)[O-])cc2)cc1` gave a TGI greater than 100 µM.
In the case of `Clc1ccc(-c2c(C3=NCCCN3)nnn2-c2ccc(Cl)cc2)cc1`, the TGI is reported as greater than 89.8 µM.
For `Fc1ccc(C2SCc3nc4ccccc4n32)cc1Cl` (configuration not stated), the TGI was 66.6 µM.
`CC1=N/C(=C\c2cccc([N+](=O)[O-])c2)C(=O)O1` was tested, and the TGI was greater than 100 µM.
`CCCCOC(=O)NC(=O)c1cn(C2CCCCC2)c(=O)[nH]c1=O` showed a TGI greater than 100 µM.
`CCOC(=O)CCn1[nH]c(=O)c(Cl)c(Cl)c1=O` showed a TGI greater than 100 µM.
`Nc1ncn(C2CC(O)C(CO)O2)c(=O)n1` (configuration not stated) showed a TGI greater than 375 µM.
Compound `C/C=C1/C(=C/c2[nH]c(/C=c3\[nH]/c(=C/C4=NC(=O)C(CC)=C4C)c(C)c3CCC(=O)O)c(CCC(=O)O)c2C)NC(=O)C1C` (configuration not stated) has a GI50 greater than 150 µg/mL and a TGI greater than 150 µg/mL.
`N#CCc1ccc(C(C#N)/C(CCCC(=O)Nc2cccc([N+](=O)[O-])c2)=N/NC(N)=S)cc1` (configuration not stated) showed a TGI greater than 100 µM.
In the case of `O=c1[nH]c(=O)n(C2OC(CO)C(O)C(O)C2O)cc1F` (configuration not stated), the TGI is reported as greater than 100 µM.
In the case of `c1cc[c]([Pb]([c]2ccccc2)[c]2ccccc2)cc1`, the GI50 is reported as 11 µM and the TGI is reported as 34.9 µM.
`CC(C)(C)c1ccc(O)c(CN(Cc2cc(C(C)(C)C)ccc2O)c2ccccc2)c1` showed a TGI of 31.8 µM.
With `CC(C)(C)c1cc(NC(=O)Cc2ccc(-c3cnc4cc(-c5cnn(CCN6CCOCC6)c5)ccc4n3)cc2)no1` the TGI was 50 µM and > 100 µM and > 3 µM.
With `Cc1ccc2[nH]c(C(=O)NN3C(=O)C(C)SC34CCCC(C)C4)c(-c3ccccc3)c2c1` (configuration not stated) the GI50 was greater than 100 µM and the TGI was greater than 100 µM.

Each compound was assayed on MOLT-4 leukemia (assay: NCI anticancer screen, dose series, 48 h).
`COc1ccc(/C(Cl)=C(\C=O)c2ccc([N+](=O)[O-])cc2)cc1` gave a TGI of 7.24 µM.
`Clc1ccc(-c2c(C3=NCCCN3)nnn2-c2ccc(Cl)cc2)cc1` gave a TGI of 60.9 µM.
In the case of `Fc1ccc(C2SCc3nc4ccccc4n32)cc1Cl` (configuration not stated), the TGI is reported as 69.9 µM.
In the case of `CC1=N/C(=C\c2cccc([N+](=O)[O-])c2)C(=O)O1`, the TGI is reported as greater than 100 µM.
`CCCCOC(=O)NC(=O)c1cn(C2CCCCC2)c(=O)[nH]c1=O` gave a TGI greater than 100 µM.
With `COc1cc2c(c(OC)c1)C1(CC(CC#N)C2)SCCS1` (configuration not stated) the TGI was greater than 100 µM.
`Nc1ncn(C2CC(O)C(CO)O2)c(=O)n1` (configuration not stated) gave a TGI greater than 375 µM.
In the case of `C/C=C1/C(=C/c2[nH]c(/C=c3\[nH]/c(=C/C4=NC(=O)C(CC)=C4C)c(C)c3CCC(=O)O)c(CCC(=O)O)c2C)NC(=O)C1C` (configuration not stated), the GI50 is reported as greater than 150 µg/mL and the TGI is reported as greater than 150 µg/mL.
`N#CCc1ccc(C(C#N)/C(CCCC(=O)Nc2cccc([N+](=O)[O-])c2)=N/NC(N)=S)cc1` (configuration not stated) was tested, and the TGI was greater than 100 µM.
Compound `CC(C)c1ccc(C(c2ccc(OCC(=O)O)cc2)c2ccc(C(C)C)cc(=O)c2O)c(O)c(=O)c1` has a TGI of 30.7 µM.
`O=c1[nH]c(=O)n(C2OC(CO)C(O)C(O)C2O)cc1F` (configuration not stated) was tested, and the TGI was greater than 100 µM.
For `c1cc[c]([Pb]([c]2ccccc2)[c]2ccccc2)cc1`, the GI50 was 15.7 µM and the TGI was 71.7 µM.
`CC(C)(C)c1ccc(O)c(CN(Cc2cc(C(C)(C)C)ccc2O)c2ccccc2)c1` showed a TGI of 37.8 µM.
Work on `COC1=CC2(C=CC1=O)c1cc(OC)c(OC)cc1CCN2C(=O)c1ccccc1` (configuration not stated) yielded a TGI greater than 100 µM.
